Measurements taken from US20100099561A1, “HETEROBICYCLIC ALKYLTHIO-BRIDGED ISOXAZOLINES” (E.I. DU PONT DE NEMOURS AND COMPANY, priority 2008, published 2010).

Columns and labels:
Assay type in all cases: in vivo
[1] = test system: morningglory (Ipomoea spp.); experiment: Test A preemergence, morningglory; settings: 0 to 100 scale (0 no effect, 100 complete control)
Method in brief: (§1)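 Ratings of 0–100 (0 no effect, 100 complete control) came from visual comparison with untreated controls after roughly ten days in a greenhouse. Plants in loam soil–sand blend were treated with compound in non-phytotoxic solvent plus surfactant, pre- or postemergence (one- to two-leaf stage).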

corn (Zea mays) = experiment: Test A preemergence, corn; settings: 0 to 100 scale (0 no effect, 100 complete control)
Method in brief: as §1

[2] = test system: cocklebur (Xanthium strumarium); experiment: Test B preemergence, cocklebur; settings: scale 0 to 100
Source text: (§2) Seeds of plant species selected from blackgrass (Alopecurus myosuroides), downy bromegrass (Bromus tectorum), green foxtail (Setaria viridis), Italian ryegrass (Lolium multiflorum), wheat (Triticum aestivum), wild oat (Avena fatua), catchweed bedstraw (Galium aparine), bermudagrass (Cynodon dactylon), Surinam grass (Brachiaria decumbens), cocklebur (Xanthium strumarium), corn (Zea mays), large crabgrass (Digitaria sanguinalis), woolly cupgrass (Eriochloa villosa), giant foxtail (Setaria faberii), goosegrass (Eleusine indica), johnsongrass (Sorghum halepense), kochia (Kochia scoparia), lambsquarters (Chenopodium album), morningglory (Ipomoea coccinea), nightshade (eastern black nightshade, Solanum ptycanthum), yellow nutsedge (Cyperus esculentus), pigweed (Amaranthus retroflexus), ragweed (common ragweed, Ambrosia elatior), soybean (Glycine max), sunflower (common oilseed sunflower, Helianthus annuus), Russian thistle (Salsola kali), and velvetleaf (Abutilon theophrasti) were planted into a blend of loam soil and sand and treated preemergence with test compounds formulated in a non-phytotoxic solvent mixture which included a surfactant. Treated plants and controls were maintained in a greenhouse for 13 to 15 days, after which time all species were compared to controls and visually evaluated. Plant response ratings, summarized in Table B, are based on a scale of 0 to 100 where 0 is no effect and 100 is complete control. A dash (-) response means no test result.

[3] = test system: downy bromegrass (Bromus tectorum); experiment: Test B preemergence, downy bromegrass; settings: scale 0 to 100
Source text: as §2

[4] = test system: velvetleaf (Abutilon theophrasti); experiment: Test A postemergence, velvetleaf; settings: 0 to 100 scale (0 no effect, 100 complete control)
Method in brief: as §1

[5] = test system: lambsquarters (Chenopodium album); experiment: Test B preemergence, lambsquarters; settings: scale 0 to 100
Source text: as §2

[6] = test system: large crabgrass (Digitaria sanguinalis); experiment: Test A preemergence, large crabgrass; settings: 0 to 100 scale (0 no effect, 100 complete control)
Method in brief: as §1

[7] = test system: sunflower (common oilseed sunflower, Helianthus annuus); experiment: Test B preemergence, sunflower; settings: Preemergence, scale 0 to 100
Source text: as §2

[8] = test system: Surinam grass (Brachiaria decumbens); experiment: Test B preemergence, Surinam grass; settings: Preemergence, scale 0 to 100
Source text: as §2

[9] = test system: giant foxtail (Setaria faberi); experiment: Test A preemergence, giant foxtail; settings: 0 to 100 scale (0 no effect, 100 complete control)
Method in brief: as §1

[10] = test system: goosegrass (Eleusine indica); experiment: Test B preemergence, goosegrass; settings: scale 0 to 100
Source text: as §2

[11] = test system: morningglory (Ipomoea spp.); experiment: Test A postemergence, morningglory; settings: 0 to 100 scale (0 no effect, 100 complete control)
Method in brief: as §1

[12] = test system: barnyardgrass (Echinochloa crus-galli); experiment: Test A preemergence, barnyardgrass; settings: 0 to 100 scale (0 no effect, 100 complete control)
Method in brief: as §1

[13] = test system: velvetleaf (Abutilon theophrasti); experiment: Test B preemergence, velvetleaf; settings: Preemergence, scale 0 to 100
Source text: as §2

[14] = test system: pigweed (Amaranthus retroflexus); experiment: Test B preemergence, pigweed; settings: scale 0 to 100
Source text: as §2

[15] = test system: giant foxtail (Setaria faberi); experiment: Test A postemergence, giant foxtail; settings: 0 to 100 scale (0 no effect, 100 complete control)
Method in brief: as §1

[16] = test system: large crabgrass (Digitaria sanguinalis); experiment: Test A postemergence, large crabgrass; settings: 0 to 100 scale (0 no effect, 100 complete control)
Method in brief: as §1

[17] = test system: barnyardgrass (Echinochloa crus-galli); experiment: Test B flooded paddy test, barnyardgrass; settings: Flood
Method in brief: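 Rice, umbrella sedge, ducksalad and barnyardgrass at 2-leaf stage; pots flooded to 3 cm, compounds applied into paddy water, depth held throughout. Greenhouse 13 to 15 days, then visual rating vs untreated controls on 0–100 scale (0 no effect, 100 complete control); dash means no test result.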

[18] = test system: wheat (Triticum aestivum); experiment: Test A preemergence, wheat; settings: 0 to 100 scale (0 no effect, 100 complete control)
Method in brief: as §1

soybean (Glycine max) = experiment: Test B preemergence, soybean; settings: Preemergence, scale 0 to 100
Source text: as §2

CC1(C)CC(S(=O)(=O)Cc2c(C(F)(F)C(F)(F)F)nc3n(c2=O)CCCC3)=NO1 [Compound 21]
Plant response rating, Morningglory ([1]; 125 g ai/ha): 0 | Plant response rating, Morningglory ([1]; 500 g ai/ha): 50 | Plant response rating, Corn (corn (Zea mays); 125 g ai/ha): 0 | Plant response rating, Corn (corn (Zea mays); 500 g ai/ha): 0 | Plant response rating, Cocklebur ([2]; 16 g ai/ha): 0 | Plant response rating, Cocklebur ([2]; 31 g ai/ha): 0 | Plant response rating, Cocklebur ([2]; 62 g ai/ha): 0 | Plant response rating, Cocklebur ([2]; 125 g ai/ha): 0 | Plant response rating, Bromegrass, Downy ([3]; 16 g ai/ha): 0 | Plant response rating, Bromegrass, Downy ([3]; 31 g ai/ha): 0 | Plant response rating, Bromegrass, Downy ([3]; 62 g ai/ha): 0 | Plant response rating, Bromegrass, Downy ([3]; 125 g ai/ha): 60 | Plant response rating, Velvetleaf ([4]; 125 g ai/ha): 0 | Plant response rating, Velvetleaf ([4]; 500 g ai/ha): 10 | Plant response rating, Lambsquarters ([5]; 16 g ai/ha): 0 | Plant response rating, Lambsquarters ([5]; 31 g ai/ha): 0 | Plant response rating, Lambsquarters ([5]; 62 g ai/ha): 0 | Plant response rating, Lambsquarters ([5]; 125 g ai/ha): 98 | Plant response rating, Crabgrass, Large ([6]; 125 g ai/ha): 90 | Plant response rating, Crabgrass, Large ([6]; 500 g ai/ha): 100 | Plant response rating, Sunflower ([7]; 16 g ai/ha): 0 | Plant response rating, Sunflower ([7]; 31 g ai/ha): 0 | Plant response rating, Sunflower ([7]; 62 g ai/ha): 0 | Plant response rating, Sunflower ([7]; 125 g ai/ha): 10 | Plant response rating, Surinam Grass ([8]; 16 g ai/ha): 50 | Plant response rating, Surinam Grass ([8]; 31 g ai/ha): 50 | Plant response rating, Surinam Grass ([8]; 62 g ai/ha): 50 | Plant response rating, Surinam Grass ([8]; 125 g ai/ha): 100 | Plant response rating, Foxtail, Giant ([9]; 125 g ai/ha): 90 | Plant response rating, Foxtail, Giant ([9]; 500 g ai/ha): 100 | Plant response rating, Goosegrass ([10]; 16 g ai/ha): 50 | Plant response rating, Goosegrass ([10]; 31 g ai/ha): 98 | Plant response rating, Goosegrass ([10]; 62 g ai/ha): 100 | Plant response rating, Goosegrass ([10]; 125 g ai/ha): 100 | Plant response rating, Morningglory ([11]; 125 g ai/ha): 0 | Plant response rating, Morningglory ([11]; 500 g ai/ha): 40 | Plant response rating, Barnyardgrass ([12]; 125 g ai/ha): 90 | Plant response rating, Barnyardgrass ([12]; 500 g ai/ha): 100 | Plant response rating, Velvetleaf ([13]; 16 g ai/ha): 0 | Plant response rating, Velvetleaf ([13]; 31 g ai/ha): 0 | Plant response rating, Velvetleaf ([13]; 62 g ai/ha): 0 | Plant response rating, Velvetleaf ([13]; 125 g ai/ha): 75 | Plant response rating, Pigweed ([14]; 16 g ai/ha): 0 | Plant response rating, Pigweed ([14]; 31 g ai/ha): 0 | Plant response rating, Pigweed ([14]; 62 g ai/ha): 0 | Plant response rating, Pigweed ([14]; 125 g ai/ha): 98 | Plant response rating, Foxtail, Giant ([15]; 125 g ai/ha): 60 | Plant response rating, Foxtail, Giant ([15]; 500 g ai/ha): 70 | Plant response rating, Crabgrass, Large ([16]; 125 g ai/ha): 50 | Plant response rating, Crabgrass, Large ([16]; 500 g ai/ha): 80 | Plant response rating, Barnyardgrass ([17]; 62 g ai/ha, scale 0 to 100): 0 | Plant response rating, Barnyardgrass ([17]; 250 g ai/ha, scale 0 to 100 (0 no effect, 100 complete control)): 0 | Plant response rating, Wheat ([18]; 125 g ai/ha): 0 | Plant response rating, Wheat ([18]; 500 g ai/ha): 40 | Plant response rating, Soybean (soybean (Glycine max); 16 g ai/ha): 0 | Plant response rating, Soybean (soybean (Glycine max); 31 g ai/ha): 0 | Plant response rating, Soybean (soybean (Glycine max); 62 g ai/ha): 0 | Plant response rating, Soybean (soybean (Glycine max); 125 g ai/ha): 0
